According to paper PMC11845477, “Exploring the principles behind antibiotics with limited resistance” (Nature Communications, 2025):

Assays:
[1] = test system: P. aeruginosa ATCC BAA-3107 (SEN) and P. aeruginosa LESB58 (MDR); assay: microbe, parasite or virus in culture; type: cell-based, Pseudomonas aeruginosa; settings: for MIC: Pseudomonas aeruginosa, across three biological replicates
Procedure, shortened: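 Cells at 5 × 10^5 per mL in cation-adjusted MHB 2 across 11 to 16-step dilutions, 2 replicates. Relative MIC expressed as MICevolved/MICancestor.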

[2] = test system: E. coli ATCC 25922 (SEN) and E. coli NCTC13846 (MDR); assay: Adaptive laboratory evolution (ALE), relative MIC of evolved lines; type: cell-based, Escherichia coli
Procedure, shortened: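 Ten parallel populations per antibiotic–ancestor pair were evolved in MHB at 37 °C, starting near 50% growth-inhibiting drug. Every 72 h they were passaged into 0.5–2.5× increasing concentrations, keeping the highest-drug well with OD600 > 0.2.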

CN(C)[C@@H]1C(O)=C(C(N)=O)C(=O)[C@@]2(O)C(O)=C3C(=O)c4c(O)c(NC(=O)CN5CCCC5)cc(F)c4C[C@H]3C[C@@H]12 [Eravacycline]
32: Relative MIC ([2]; EC-MDR (NCTC 13846), evolved line 1, MIC of evolved line / MIC of ancestor) | Relative MIC ([2]; EC-MDR (NCTC 13846), evolved line 9, MIC of evolved line / MIC of ancestor) | Relative MIC ([2]; EC-SEN, Escherichia coli ATCC 25922, evolved line 10 versus ancestor) | Relative MIC ([2]; Escherichia coli ATCC 25922 (EC-SEN), evolved line 10) | Relative MIC ([2]; Escherichia coli NCTC 13846 (EC-MDR), evolved line 1) | Relative MIC ([2]; Escherichia coli NCTC 13846 (EC-MDR), evolved line 9)
8: Relative MIC ([2]; EC-MDR (NCTC 13846), evolved line 5, MIC of evolved line / MIC of ancestor) | Relative MIC ([2]; EC-MDR (NCTC 13846), evolved line 10, MIC of evolved line / MIC of ancestor) | Relative MIC ([2]; EC-SEN, Escherichia coli ATCC 25922, evolved line 3 versus ancestor) | Relative MIC ([2]; EC-SEN, Escherichia coli ATCC 25922, evolved line 6 versus ancestor) | Relative MIC ([2]; Escherichia coli ATCC 25922 (EC-SEN), evolved line 3) | Relative MIC ([2]; Escherichia coli ATCC 25922 (EC-SEN), evolved line 6) | Relative MIC ([2]; Escherichia coli NCTC 13846 (EC-MDR), evolved line 5) | Relative MIC ([2]; Escherichia coli NCTC 13846 (EC-MDR), evolved line 10)
1.806: Relative MIC (log10) ([2]; EC-SEN (Escherichia coli ATCC 25922), evolved line 1 adapted to the named antibiotic)
32 µg/mL: MIC ([1]; ATCCBAA3107, Pseudomonas aeruginosa LESB 58 (PA-MDR))
64: Relative MIC ([2]; EC-SEN (ATCC 25922), evolved line 1, MIC of evolved line / MIC of ancestor) | Relative MIC ([2]; Escherichia coli ATCC 25922 (EC-SEN), evolved line 1)
1.505: Relative MIC (log10) ([2]; EC-MDR (Escherichia coli NCTC 13846), evolved line 1 adapted to the named antibiotic) | Relative MIC (log10) ([2]; EC-MDR (Escherichia coli NCTC 13846), evolved line 9 adapted to the named antibiotic)
1.204: Relative MIC (log10) ([2]; EC-MDR (Escherichia coli NCTC 13846), evolved line 3 adapted to the named antibiotic) | Relative MIC (log10) ([2]; EC-MDR (Escherichia coli NCTC 13846), evolved line 4 adapted to the named antibiotic) | Relative MIC (log10) ([2]; EC-MDR (Escherichia coli NCTC 13846), evolved line 7 adapted to the named antibiotic) | Relative MIC (log10) ([2]; EC-SEN (Escherichia coli ATCC 25922), evolved line 4 adapted to the named antibiotic) | Relative MIC (log10) ([2]; EC-SEN (Escherichia coli ATCC 25922), evolved line 7 adapted to the named antibiotic) | Relative MIC (log10) ([2]; EC-SEN (Escherichia coli ATCC 25922), evolved line 8 adapted to the named antibiotic)
16: Relative MIC ([2]; EC-MDR (NCTC 13846), evolved line 2, MIC of evolved line / MIC of ancestor) | Relative MIC ([2]; EC-MDR (NCTC 13846), evolved line 3, MIC of evolved line / MIC of ancestor) | Relative MIC ([2]; EC-MDR (NCTC 13846), evolved line 4, MIC of evolved line / MIC of ancestor) | Relative MIC ([2]; EC-MDR (NCTC 13846), evolved line 7, MIC of evolved line / MIC of ancestor) | Relative MIC ([2]; EC-MDR (NCTC 13846), evolved line 8, MIC of evolved line / MIC of ancestor) | Relative MIC ([2]; EC-SEN (ATCC 25922), evolved line 2, MIC of evolved line / MIC of ancestor) | Relative MIC ([2]; EC-SEN, Escherichia coli ATCC 25922, evolved line 4 versus ancestor) | Relative MIC ([2]; EC-SEN, Escherichia coli ATCC 25922, evolved line 7 versus ancestor) | Relative MIC ([2]; EC-SEN, Escherichia coli ATCC 25922, evolved line 8 versus ancestor) | Relative MIC ([2]; EC-SEN, Escherichia coli ATCC 25922, evolved line 9 versus ancestor) | Relative MIC ([2]; Escherichia coli ATCC 25922 (EC-SEN), evolved line 2) | Relative MIC ([2]; Escherichia coli ATCC 25922 (EC-SEN), evolved line 4) | Relative MIC ([2]; Escherichia coli ATCC 25922 (EC-SEN), evolved line 7) | Relative MIC ([2]; Escherichia coli ATCC 25922 (EC-SEN), evolved line 8) | Relative MIC ([2]; Escherichia coli ATCC 25922 (EC-SEN), evolved line 9) | Relative MIC ([2]; Escherichia coli NCTC 13846 (EC-MDR), evolved line 2) | Relative MIC ([2]; Escherichia coli NCTC 13846 (EC-MDR), evolved line 3) | Relative MIC ([2]; Escherichia coli NCTC 13846 (EC-MDR), evolved line 4) | Relative MIC ([2]; Escherichia coli NCTC 13846 (EC-MDR), evolved line 7) | Relative MIC ([2]; Escherichia coli NCTC 13846 (EC-MDR), evolved line 8)
4 µg/mL: MIC of ancestor ([1]; P. aeruginosa ATCC BAA 3107 (PA-SEN), ancestor strain, sheet fig 2a) | MIC of ancestor ([1]; PA-SEN, Pseudomonas aeruginosa ATCC BAA 3107, ancestor strain) | MIC ([1]; ATCCBAA3107, Pseudomonas aeruginosa ATCC BAA-3107 (PA-SEN))
